According to ChEMBL document CHEMBL4373724, “An overview of recent progress in siderophore-antibiotic conjugates” (2019):
In brackets after ≈: the same amount, converted by molar mass.

How the values were obtained:
Assay type in all cases: functional
Pseudomonas aeruginosa [1] = test: Antimicrobial activity against Pseudomonas aeruginosa X621 under iron-sufficient condition by broth microdilution method
Pseudomonas aeruginosa [2] = test: Antimicrobial activity against Pseudomonas aeruginosa X620 under iron-deficient condition by broth microdilution method
Staphylococcus aureus [3] = test: Antimicrobial activity against Staphylococcus aureus X1.1 under iron-sufficient condition by broth microdilution method
Escherichia coli [4] = test: Antimicrobial activity against Escherichia coli EC14 under iron-sufficient condition by broth microdilution method
Escherichia coli [5] = test: Antimicrobial activity against Escherichia coli X580 under iron-deficient condition by broth microdilution method
Micrococcus luteus [6] = test: Antimicrobial activity against Micrococcus luteus under iron-deficient condition by broth microdilution method
Escherichia coli [7] = test: Antimicrobial activity against Escherichia coli X580 under iron-sufficient condition by broth microdilution method
Escherichia coli [8] = test: Antimicrobial activity against Escherichia coli EC14 under iron-deficient condition by broth microdilution method
Staphylococcus aureus [9] = test: Antimicrobial activity against Staphylococcus aureus X1.1 under iron-deficient condition by broth microdilution method
Pseudomonas aeruginosa [10] = test: Antimicrobial activity against Pseudomonas aeruginosa X620 under iron-sufficient condition by broth microdilution method
Micrococcus luteus [11] = test: Antimicrobial activity against Micrococcus luteus under iron-sufficient condition by broth microdilution method
Pseudomonas aeruginosa [12] = test: Antimicrobial activity against Pseudomonas aeruginosa X621 under iron-deficient condition by broth microdilution method
Staphylococcus aureus [13] = test: Antimicrobial activity against Staphylococcus aureus SG 511 after 18 hrs by CLSI protocol based broth microdilution method; conditions: SG 511, 18 h
Klebsiella aerogenes = test: Antimicrobial activity against Enterobacter aerogenes ATCC 35029 after 18 hrs by CLSI protocol based broth microdilution method; conditions: ATCC 35029, 18 h
Escherichia coli [14] = test: Antimicrobial activity against Escherichia coli ATCC 25922 after 18 hrs by CLSI protocol based broth microdilution method; conditions: ATCC 25922, 18 h
Acinetobacter baumannii = test: Antimicrobial activity against Acinetobacter baumannii ATCC 17961 after 18 hrs by CLSI protocol based broth microdilution method; conditions: ATCC 17961, 18 h
Enterococcus faecium = test: Antimicrobial activity against Enterococcus faecium NCTC after 18 hrs by CLSI protocol based broth microdilution method
Pseudomonas aeruginosa [15] = test: Antimicrobial activity against Pseudomonas aeruginosa ATCC 27853 after 18 hrs by CLSI protocol based broth microdilution method; conditions: ATCC 27853, 18 h
Klebsiella pneumoniae = test: Antimicrobial activity against Klebsiella pneumoniae 700603 after 18 hrs by CLSI protocol based broth microdilution method; conditions: Klebsiella pneumoniae, 700603, 18 h
Streptococcus pneumoniae = test: Antimicrobial activity against Streptococcus pneumoniae PARK
Staphylococcus aureus [16] = test: Antimicrobial activity against Staphylococcus aureus X1.1
Staphylococcus aureus [17] = test: Antimicrobial activity against Staphylococcus aureus V41
Streptococcus = test: Antimicrobial activity against Streptococcus AC283

SMILES | MIC (Staphylococcus aureus [13]) [µM] | MIC (Klebsiella aerogenes) [µM] | MIC (Escherichia coli [14]) [µM] | MIC (Acinetobacter baumannii) [µM] | MIC (Enterococcus faecium) [µM] | MIC (Pseudomonas aeruginosa [15]) [µM] | MIC (Klebsiella pneumoniae) [µM] | other results
CN[C@H](CC(C)C)C(=O)N[C@H]1C(=O)N[C@@H](CC(N)=O)C(=O)N[C@H]2C(=O)N[C@H]3C(=O)N[C@H](C(=O)N[C@H](C(=O)O)c4cc(O)cc(O)c4-c4cc3ccc4O)[C@H](O)c3ccc(c(Cl)c3)Oc3cc2cc(c3O[C@@H]2O[C@H](CO)[C@@H](O)[C@H](O)[C@H]2O[C@H]2C[C@](C)(NC(=O)CCC(=O)N(O)CCCCCNC(=O)CCC(=O)N(CCCCNC(=O)c3cccc(O)c3O)CCCNC(=O)c3cccc(O)c3O)[C@H](O)[C@H](C)O2)Oc2ccc(cc2Cl)[C@H]1O |  |  |  |  |  |  |  | MIC (Pseudomonas aeruginosa [1]): > 128 µM; MIC (Pseudomonas aeruginosa [2]): > 128 µM; MIC (Staphylococcus aureus [3]): 8 µM (≈ 17.2 µg/mL); MIC (Escherichia coli [4]): > 128 µM; MIC (Escherichia coli [5]): 128 µM (≈ 275 µg/mL); MIC (Micrococcus luteus [6]): 16 µM (≈ 34.4 µg/mL); MIC (Escherichia coli [7]): 32 µM (≈ 68.8 µg/mL); MIC (Escherichia coli [8]): > 128 µM; MIC (Staphylococcus aureus [9]): 8 µM (≈ 17.2 µg/mL); MIC (Pseudomonas aeruginosa [10]): > 128 µM; MIC (Micrococcus luteus [11]): 16 µM (≈ 34.4 µg/mL); MIC (Pseudomonas aeruginosa [12]): > 128 µM
O=C(O)c1cn(C2CC2)c2cc(N3CCN(C(=O)CCC(=O)N(O)CCCCCO)CC3)c(F)cc2c1=O | 32 (≈ 17 µg/mL) | 4 (≈ 2.13 µg/mL) | 2 (≈ 1.07 µg/mL) | 16 (≈ 8.52 µg/mL) | > 128 | 128 (≈ 68.2 µg/mL) | 16 (≈ 8.52 µg/mL) | 
O=C(CCC(=O)N(CCCCNC(=O)c1cccc(O)c1O)CCCNC(=O)c1cccc(O)c1O)N[C@@H]1C(=O)N2C(C(=O)O)=C(Cl)CC[C@H]12 |  |  |  |  |  |  |  | MIC (Streptococcus pneumoniae): 64 µg/mL (≈ 89.4 µM); MIC (Staphylococcus aureus [16]): 64 µg/mL (≈ 89.4 µM); MIC (Staphylococcus aureus [17]): 64 µg/mL (≈ 89.4 µM); MIC (Streptococcus): 16 µg/mL (≈ 22.3 µM)
O=C(CCC(=O)N(O)CCCCCO)NCCCCCN(O)C(=O)CCC(=O)N1CCN(c2cc3c(cc2F)c(=O)c(C(=O)O)cn3C2CC2)CC1 | 64 (≈ 46.9 µg/mL) | 4 (≈ 2.93 µg/mL) | 2 (≈ 1.47 µg/mL) | 64 (≈ 46.9 µg/mL) | > 128 | 64 (≈ 46.9 µg/mL) | 128 (≈ 93.8 µg/mL) | 
O=C(CCC(=O)N(O)CCCCCO)NCCCCCN(O)C(=O)CCC(=O)NCCCCCN(O)C(=O)CCC(=O)N[C@@H](C(=O)N[C@@H]1C(=O)N2C(C(=O)O)=C(Cl)CC[C@H]12)c1ccccc1 | 64 (≈ 60.9 µg/mL) | > 128 | 128 (≈ 122 µg/mL) | 64 (≈ 60.9 µg/mL) | > 128 | > 128 | > 128 | 
CN[C@H](CC(C)C)C(=O)N[C@H]1C(=O)N[C@@H](CC(N)=O)C(=O)N[C@H]2C(=O)N[C@H]3C(=O)N[C@H](C(=O)N[C@H](C(=O)O)c4cc(O)cc(O)c4-c4cc3ccc4O)[C@H](O)c3ccc(c(Cl)c3)Oc3cc2cc(c3O[C@@H]2O[C@H](CO)[C@@H](O)[C@H](O)[C@H]2O[C@H]2C[C@](C)(NC(=O)CCC(=O)N(CCCCNC(=O)c3cccc(O)c3O)CCCNC(=O)c3cccc(O)c3O)[C@H](O)[C@H](C)O2)Oc2ccc(cc2Cl)[C@H]1O |  |  |  |  |  |  |  | MIC (Pseudomonas aeruginosa [1]): > 128 µM; MIC (Pseudomonas aeruginosa [2]): > 128 µM; MIC (Staphylococcus aureus [3]): 32 µM (≈ 62.4 µg/mL); MIC (Escherichia coli [4]): > 128 µM; MIC (Escherichia coli [5]): 128 µM (≈ 249 µg/mL); MIC (Micrococcus luteus [6]): 32 µM (≈ 62.4 µg/mL); MIC (Escherichia coli [7]): > 128 µM; MIC (Escherichia coli [8]): > 128 µM; MIC (Staphylococcus aureus [9]): 32 µM (≈ 62.4 µg/mL); MIC (Pseudomonas aeruginosa [10]): > 128 µM; MIC (Micrococcus luteus [11]): 16 µM (≈ 31.2 µg/mL); MIC (Pseudomonas aeruginosa [12]): 32 µM (≈ 62.4 µg/mL)
O=C(CCC(=O)N(O)CCCCCO)N[C@@H](C(=O)N[C@@H]1C(=O)N2C(C(=O)O)=C(Cl)CC[C@H]12)c1ccccc1 | 16 (≈ 8.82 µg/mL) | > 128 | > 128 | ≥ 128 | > 128 | > 128 | > 128 | 
O=C(CCC(=O)N(O)CCCCCO)NCCCCCN(O)C(=O)CCC(=O)N[C@@H](C(=O)N[C@@H]1C(=O)N2C(C(=O)O)=C(Cl)CC[C@H]12)c1ccccc1 | 64 (≈ 48.1 µg/mL) | > 128 | ≥ 128 | 32 (≈ 24 µg/mL) | > 128 | > 128 | > 128 | 
